Measured values reported in patent US20260108546A1 (ELI LILLY AND COMPANY, priority 2024, published 2026).

Molecular target: T1, hGIP-R (Homo sapiens, UniProt P48546)
T1 construct: expressed in transfected cells; host or cells: HEK-293 clonal cell lines
T1 sequence (P48546 22-466): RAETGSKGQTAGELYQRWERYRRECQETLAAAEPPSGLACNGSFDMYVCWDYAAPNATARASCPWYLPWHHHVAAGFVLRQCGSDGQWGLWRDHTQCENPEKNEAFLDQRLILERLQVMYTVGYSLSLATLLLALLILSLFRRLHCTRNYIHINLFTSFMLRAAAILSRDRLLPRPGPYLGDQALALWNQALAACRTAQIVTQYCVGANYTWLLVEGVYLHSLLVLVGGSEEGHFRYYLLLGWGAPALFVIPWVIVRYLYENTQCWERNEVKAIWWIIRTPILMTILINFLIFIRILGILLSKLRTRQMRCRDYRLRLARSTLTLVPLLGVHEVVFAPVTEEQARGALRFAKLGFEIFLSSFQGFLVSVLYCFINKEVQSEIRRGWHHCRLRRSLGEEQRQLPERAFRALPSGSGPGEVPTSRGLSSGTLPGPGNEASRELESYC
Assay: Functional hGIP-R Assay (cAMP formation, HTRF)
Format: cell-based
Settings: for Emax: cAMP efficacy, percent of maximal response to GIP(1-42)OH, 37° C., 0.1% bovine casein, arithmetic mean ± SEM; for EC50: cAMP potency, HEK-293 cells expressing hGIP-R, incubated at 37° C. in the presence of 0.1% bovine casein, geometric mean, read-out: Human GIP-R EC50, nM (SEM, n)
How it was run: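 HEK-293 cells expressing hGIP-R were given a 20-point compound series in DMEM with 0.1% casein, 250 μM IBMX, 1% DMSO, 30 min at 37 °C. cAMP was read by HTRF against a standard curve, expressed as % of human GIP (1-42) OH maximum; EC50 and Emax came from four-parameter fits.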

Emax [%]	EC50 [nM]	Compound
74.4 ± 2.94	1.13	Cc1cn2cc(-c3ccc([C@H]4C[C@@]45CCN([C@H](Cc4cnn(C(F)F)c4)C(=O)NC(C)(C)Cn4nc(C(F)(F)F)cc4-c4ccc(=O)[nH]n4)C5=O)c(Cl)c3)cnc2n1 [Example 148, (R)-2-((1S,3R)-1-(2-Chloro-4-(2-methylimidazo[1,2-a]pyrimidin-6-yl)phenyl)-4-oxo-5-azaspiro[2.4]heptan-5-yl)-3-(1-(difluoromethyl)-1H-pyrazol-4-yl)-N-(2-methyl-1-(5-(6-oxo-1,6-dihydropyridazin-3-yl)-3-(trifluoromethyl)-1H-pyrazol-1-yl)propan-2-yl)propanamide]
73.2 ± 2.43	5.57	Cc1cn2cc(-c3ccc([C@H]4C[C@@]45CCN([C@H](Cc4cnn(C(F)F)c4)C(=O)NC(C)(C)Cn4nc(C(F)(F)F)cc4-c4ccc(=O)[nH]n4)C5=O)c(F)c3)cnc2n1 [Example 149, (R)-3-(1-(Difluoromethyl)-1H-pyrazol-4-yl)-2-((1S,3R)-1-(2-fluoro-4-(2-methylimidazo[1,2-a]pyrimidin-6-yl)phenyl)-4-oxo-5-azaspiro[2.4]heptan-5-yl)-N-(2-methyl-1-(5-(6-oxo-1,6-dihydropyridazin-3-yl)-3-(trifluoromethyl)-1H-pyrazol-1-yl)propan-2-yl)propanamide]
89.5 ± 6.21	2.06	Cc1cn2cc(-c3ccc([C@H]4C[C@@]45CCN([C@H](Cc4cnn(C(F)F)c4)C(=O)NC(C)(C)Cn4nc(C(F)(F)F)cc4-c4ccc(=O)n(COP(=O)(O)O)n4)C5=O)c(Cl)c3)cnc2n1 [Example 150, (3-(1-(2-((R)-2-((1S,3R)-1-(2-Chloro-4-(2-methylimidazo[1,2-a]pyrimidin-6-yl)phenyl)-4-oxo-5-azaspiro[2.4]heptan-5-yl)-3-(1-(difluoromethyl)-1H-pyrazol-4-yl)propanamido)-2-methylpropyl)-3-(trifluoromethyl)-1H-pyrazol-5-yl)-6-oxopyridazin-1 (6H)-yl)methyl dihydrogen phosphate]
106 ± 2.17	16.9	Cc1cn2cc(-c3ccc([C@H]4C[C@@]45CCN([C@H](Cc4cnn(C(F)F)c4)C(=O)NC(C)(C)Cn4nc(C(F)(F)F)cc4-c4ccc(=O)n(COP(=O)(O)O)n4)C5=O)c(F)c3)cnc2n1 [Example 151, (3-(1-(2-((R)-3-(1-(Difluoromethyl)-1H-pyrazol-4-yl)-2-((1S,3R)-1-(2-fluoro-4-(2-methylimidazo[1,2-a]pyrimidin-6-yl)phenyl)-4-oxo-5-azaspiro[2.4]heptan-5-yl)propanamido)-2-methylpropyl)-3-(trifluoromethyl)-1H-pyrazol-5-yl)-6-oxopyridazin-1 (6H)-yl)methyl dihydrogen phosphate]
87.2 ± 1.03	1.73	[2H]C([2H])([2H])n1cc(C[C@H](C(=O)NC(C)(C)Cn2nc(C(F)(F)F)cc2-c2cnc(C)nc2)N2CC[C@@]3(C[C@@H]3c3ccc(-c4cnc5nc(C)cn5c4)cc3Cl)C2=O)cn1 [Example 152, (R)-2-((1S,3R)-1-(2-Chloro-4-(2-methylimidazo[1,2-a]pyrimidin-6-yl)phenyl)-4-oxo-5-azaspiro[2.4]heptan-5-yl)-N-(2-methyl-1-(5-(2-methylpyrimidin-5-yl)-3-(trifluoromethyl)-1H-pyrazol-1-yl)propan-2-yl)-3-(1-(methyl-d3)-1H-pyrazol-4-yl)propanamide]
74.2 ± 2.83	5.24	Cn1cc(-c2ccc([C@H]3C[C@@]34CCN([C@H](Cc3cnn(C(F)F)c3)C(=O)NC(C)(C)Cn3nc(C(F)(F)F)cc3-c3cn[nH]n3)C4=O)c(Cl)c2)cnc1=O [Example 154, (R)—N-(1-(5-(2H-1,2,3-Triazol-4-yl)-3-(trifluoromethyl)-1H-pyrazol-1-yl)-2-methylpropan-2-yl)-2-((1S,3R)-1-(2-chloro-4-(1-methyl-2-oxo-1,2-dihydropyrimidin-5-yl)phenyl)-4-oxo-5-azaspiro[2.4]heptan-5-yl)-3-(1-(difluoromethyl)-1H-pyrazol-4-yl)propanamide]
78.1 ± 4.92	118	Cn1cc(-c2cc(C(F)(F)F)nn2CC(C)(C)NC(=O)[C@@H](Cc2cnn(C(F)F)c2)NC(=O)[C@H]2C[C@@H]2c2nc3c(Cl)nn(C)c3cc2C#N)cc(F)c1=O [Example 155, (1S,2S)-2-(3-Chloro-6-cyano-1-methyl-1H-pyrazolo[4,3-b]pyridin-5-yl)-N—((R)-3-(1-(difluoromethyl)-1H-pyrazol-4-yl)-1-((1-(5-(5-fluoro-1-methyl-6-oxo-1,6-dihydropyridin-3-yl)-3-(trifluoromethyl)-1H-pyrazol-1-yl)-2-methylpropan-2-yl)amino)-1-oxopropan-2-yl)cyclopropane-1-carboxamide]
16.5 ± 0.234	108	Cn1cc(-c2cc(C(F)(F)F)nn2CC(C)(C)NC(=O)[C@@H](Cc2cnn(C(F)F)c2)NC(=O)[C@H]2C[C@@H]2c2nc3cnn(C)c3cc2F)cc(F)c1=O [Example 157, (1S,2S)-N-((R)-3-(1-(Difluoromethyl)-1H-pyrazol-4-yl)-1-((1-(5-(5-fluoro-1-methyl-6-oxo-1,6-dihydropyridin-3-yl)-3-(trifluoromethyl)-1H-pyrazol-1-yl)-2-methylpropan-2-yl)amino)-1-oxopropan-2-yl)-2-(6-fluoro-1-methyl-1H-pyrazolo[4,3-b]pyridin-5-yl)cyclopropane-1-carboxamide]
102 ± 1.41	1.23	Cc1nc(-c2cnc3nc(C4CC4)cn3c2)ccc1[C@H]1C[C@@]12CCN([C@H](Cc1cnn(C(F)F)c1)C(=O)NC(C)(C)Cn1nc(C(F)(F)F)cc1-c1cnc(C(C)(C)O)nc1)C2=O [Example 158, (R)-2-((1R,3R)-1-(6-(2-cyclopropylimidazo[1,2-a]pyrimidin-6-yl)-2-methylpyridin-3-yl)-4-oxo-5-azaspiro[2.4]heptan-5-yl)-3-(1-(difluoromethyl)-1H-pyrazol-4-yl)-N-(1-(5-(2-(2-hydroxypropan-2-yl)pyrimidin-5-yl)-3-(trifluoromethyl)-1H-pyrazol-1-yl)-2-methylpropan-2-yl)propanamide]
95.3 ± 3.03	0.397	Cc1nc(-c2cnc3nc(C4CC4)cn3c2)ccc1[C@H]1C[C@@]12CCN([C@H](Cc1cnn(C(F)F)c1)C(=O)NC(C)(C)Cn1nc(C(F)(F)F)cc1-c1ccc(C(C)(C)O)nc1)C2=O [Example 159, (R)-2-((1R,3R)-1-(6-(2-Cyclopropylimidazo[1,2-a]pyrimidin-6-yl)-2-methylpyridin-3-yl)-4-oxo-5-azaspiro[2.4]heptan-5-yl)-3-(1-(difluoromethyl)-1H-pyrazol-4-yl)-N-(1-(5-(6-(2-hydroxypropan-2-yl)pyridin-3-yl)-3-(trifluoromethyl)-1H-pyrazol-1-yl)-2-methylpropan-2-yl)propanamide]
119 ± 3.76	1.24	COCc1cn2cc(-c3ccc([C@H]4C[C@@]45CCN([C@H](Cc4cnn(C(F)F)c4)C(=O)NC(C)(C)Cn4nc(C(F)(F)F)cc4-c4ccnc(C(C)(C)O)c4)C5=O)c(C)n3)cnc2n1 [Example 160, (R)-3-(1-(difluoromethyl)-1H-pyrazol-4-yl)-N-(1-(5-(2-(2-hydroxypropan-2-yl)pyridin-4-yl)-3-(trifluoromethyl)-1H-pyrazol-1-yl)-2-methylpropan-2-yl)-2-((1R,3R)-1-(6-(2-(methoxymethyl)imidazo[1,2-a]pyrimidin-6-yl)-2-methylpyridin-3-yl)-4-oxo-5-azaspiro[2.4]heptan-5-yl)propanamide]
71.7 ± 1.02	1.47	Cn1cc2cc(-c3ccc([C@H]4C[C@@]45CCN([C@H](Cc4cnn(C(F)F)c4)C(=O)NC(C)(C)Cn4nc(C(F)(F)F)cc4-c4ccn(C6CC6)c(=O)n4)C5=O)c(Cl)c3)cnc2n1 [Example 161, (R)-2-((1S,3R)-1-(2-chloro-4-(2-methyl-2H-pyrazolo[3,4-b]pyridin-5-yl)phenyl)-4-oxo-5-azaspiro[2.4]heptan-5-yl)-N-(1-(5-(1-cyclopropyl-2-oxo-1,2-dihydropyrimidin-4-yl)-3-(trifluoromethyl)-1H-pyrazol-1-yl)-2-methylpropan-2-yl)-3-(1-(difluoromethyl)-1H-pyrazol-4-yl)propanamide]
50	0.179	Cn1cc2cc(-c3ccc([C@H]4C[C@@]45CCN([C@H](Cc4cnn(C(F)F)c4)C(=O)NC(C)(C)Cn4nc(C(F)(F)F)cc4-c4ccc(P(C)(C)=O)cc4)C5=O)c(Cl)c3)cnc2n1 [Example 162, (R)-2-((1S,3R)-1-(2-chloro-4-(2-methyl-2H-pyrazolo[3,4-b]pyridin-5-yl)phenyl)-4-oxo-5-azaspiro[2.4]heptan-5-yl)-3-(1-(difluoro-methyl)-1H-pyrazol-4-yl)-N-(1-(5-(4-(dimethyl-phosphoryl)phenyl)-3-(trifluoro-methyl)-1H-pyrazol-1-yl)-2-methylpropan-2-yl)propanamide]
